Test results reported in PubChem BioAssay (NCI).
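Interpolation was linear, between the two tested concentrations surrounding the appropriate level; five concentrations were tested over 48 hours in 96-well plates. At the TGI there is no net growth.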

Assays:
Assay in all cases: NCI anticancer screen, dose series, 48 h
SF-539 CNS = system: SF-539 CNS
SK-MEL-2 melanoma = system: SK-MEL-2 melanoma
NCI-H226 lung = system: NCI-H226 lung
UACC-62 melanoma = system: UACC-62 melanoma
SR leukemia = system: SR leukemia
CAKI-1 renal = system: CAKI-1 renal
HOP-92 NSCLC = system: HOP-92 NSCLC
SK-MEL-5 melanoma = system: SK-MEL-5 melanoma
MDA-MB-435 = system: MDA-MB-435
IGROV1 ovarian = system: IGROV1 ovarian
HCT-15 colon = system: HCT-15 colon
EKVX NSCLC = system: EKVX NSCLC
OVCAR-8 ovarian = system: OVCAR-8 ovarian
NCI/ADR-RES ovarian = system: NCI/ADR-RES ovarian
SF-295 CNS = system: SF-295 CNS
UO-31 renal = system: UO-31 renal
RXF 393 renal = system: RXF 393 renal
ACHN renal = system: ACHN renal
SK-MEL-28 melanoma = system: SK-MEL-28 melanoma
A549 NSCLC = system: A549 NSCLC
MDA-N = system: MDA-N
HT29 colon = system: HT29 colon
PC-3 prostate = system: PC-3 prostate
MCF7 breast = system: MCF7 breast
TK-10 renal = system: TK-10 renal
UACC-257 melanoma = system: UACC-257 melanoma
T-47D breast = system: T-47D breast
HL-60(TB) leukemia = system: HL-60(TB) leukemia
OVCAR-5 ovarian = system: OVCAR-5 ovarian
SK-OV-3 ovarian = system: SK-OV-3 ovarian
SNB-19 CNS = system: SNB-19 CNS
MOLT-4 leukemia = system: MOLT-4 leukemia
K-562 leukemia = system: K-562 leukemia
HS 578T breast = system: HS 578T breast
COLO 205 colon = system: COLO 205 colon
OVCAR-4 ovarian = system: OVCAR-4 ovarian
BT-549 breast = system: BT-549 breast
U251 CNS = system: U251 CNS
MALME-3M melanoma = system: MALME-3M melanoma
M14 melanoma = system: M14 melanoma
A498 renal = system: A498 renal
NCI-H522 lung = system: NCI-H522 lung
RPMI-8226 leukemia = system: RPMI-8226 leukemia
DU-145 prostate = system: DU-145 prostate
NCI-H23 lung = system: NCI-H23 lung
NCI-H460 lung = system: NCI-H460 lung
OVCAR-3 ovarian = system: OVCAR-3 ovarian
KM12 colon = system: KM12 colon
SW-620 colon = system: SW-620 colon
LOX IMVI melanoma = system: LOX IMVI melanoma
MDA-MB-231 breast = system: MDA-MB-231 breast
HCT-116 colon = system: HCT-116 colon
SNB-75 CNS = system: SNB-75 CNS
HCC-2998 colon = system: HCC-2998 colon
786-0 renal = system: 786-0 renal
CCRF-CEM leukemia = system: CCRF-CEM leukemia
SN12C renal = system: SN12C renal
SF-268 CNS = system: SF-268 CNS
HOP-62 NSCLC = system: HOP-62 NSCLC

## CN(CCO)CC(=O)CC(O)(C(F)(F)F)C(F)(F)F
SF-539 CNS
  TGI: > 100 µM
SK-MEL-2 melanoma
  TGI: 95.3 µM
NCI-H226 lung
  TGI: > 100 µM
UACC-62 melanoma
  TGI: > 100 µM
SR leukemia
  TGI: > 100 µM
CAKI-1 renal
  TGI: 90.3 µM
HOP-92 NSCLC
  TGI: 54.2 µM
SK-MEL-5 melanoma
  TGI: 31.8 µM
MDA-MB-435
  TGI: > 100 µM
IGROV1 ovarian
  TGI: > 100 µM
HCT-15 colon
  TGI: > 100 µM
EKVX NSCLC
  TGI: > 100 µM
OVCAR-8 ovarian
  TGI: > 100 µM
NCI/ADR-RES ovarian
  TGI: > 100 µM
SF-295 CNS
  TGI: > 100 µM
UO-31 renal
  TGI: > 100 µM
RXF 393 renal
  TGI: 46.8 µM
ACHN renal
  TGI: 99.4 µM
SK-MEL-28 melanoma
  TGI: > 100 µM
A549 NSCLC
  TGI: > 100 µM
MDA-N
  TGI: > 100 µM
HT29 colon
  TGI: > 100 µM
PC-3 prostate
  TGI: 82.8 µM
MCF7 breast
  TGI: > 100 µM
TK-10 renal
  TGI: > 100 µM
UACC-257 melanoma
  TGI: > 100 µM
T-47D breast
  TGI: > 100 µM
HL-60(TB) leukemia
  TGI: 73.5 µM
OVCAR-5 ovarian
  TGI: > 100 µM
SK-OV-3 ovarian
  TGI: 74.3 µM
SNB-19 CNS
  TGI: > 100 µM
MOLT-4 leukemia
  TGI: > 100 µM
K-562 leukemia
  TGI: > 100 µM
HS 578T breast
  TGI: 58.7 µM
COLO 205 colon
  TGI: > 100 µM
OVCAR-4 ovarian
  TGI: > 100 µM
BT-549 breast
  TGI: > 100 µM
U251 CNS
  TGI: > 100 µM
MALME-3M melanoma
  TGI: > 100 µM
M14 melanoma
  TGI: > 100 µM
A498 renal
  TGI: > 100 µM
NCI-H522 lung
  TGI: > 100 µM
RPMI-8226 leukemia
  TGI: > 100 µM
DU-145 prostate
  TGI: > 100 µM
NCI-H23 lung
  TGI: 60.2 µM
NCI-H460 lung
  TGI: > 100 µM
OVCAR-3 ovarian
  TGI: 87 µM
KM12 colon
  TGI: > 100 µM
SW-620 colon
  TGI: > 100 µM
LOX IMVI melanoma
  TGI: 86.3 µM
MDA-MB-231 breast
  TGI: > 100 µM
HCT-116 colon
  TGI: > 100 µM
SNB-75 CNS
  TGI: 51.7 µM
HCC-2998 colon
  TGI: > 100 µM
786-0 renal
  TGI: > 100 µM
CCRF-CEM leukemia
  TGI: 91.9 µM

## CCOc1ccc(C2c3[nH]c4ccccc4c3CCN2C(=O)c2cccs2)cc1 (stereo not given)
SF-539 CNS
  TGI: > 100 µM
SN12C renal
  TGI: > 100 µM
SK-MEL-2 melanoma
  TGI: > 100 µM
NCI-H226 lung
  TGI: 43.4 µM
UACC-62 melanoma
  TGI: > 100 µM
SR leukemia
  TGI: > 100 µM
CAKI-1 renal
  TGI: > 100 µM
HOP-92 NSCLC
  TGI: > 100 µM
SK-MEL-5 melanoma
  TGI: > 100 µM
MDA-MB-435
  TGI: > 100 µM
IGROV1 ovarian
  TGI: > 100 µM
HCT-15 colon
  TGI: > 100 µM
EKVX NSCLC
  TGI: > 100 µM
OVCAR-8 ovarian
  TGI: > 100 µM
NCI/ADR-RES ovarian
  TGI: > 100 µM
SF-295 CNS
  TGI: > 100 µM
UO-31 renal
  TGI: > 100 µM
RXF 393 renal
  TGI: > 100 µM
ACHN renal
  TGI: > 100 µM
SK-MEL-28 melanoma
  TGI: > 100 µM
A549 NSCLC
  TGI: > 100 µM
MDA-N
  TGI: > 100 µM
HT29 colon
  TGI: > 100 µM
PC-3 prostate
  TGI: > 100 µM
MCF7 breast
  TGI: > 100 µM
TK-10 renal
  TGI: > 100 µM
UACC-257 melanoma
  TGI: > 100 µM
T-47D breast
  TGI: > 100 µM
HL-60(TB) leukemia
  TGI: > 100 µM
OVCAR-5 ovarian
  TGI: > 100 µM
SK-OV-3 ovarian
  TGI: > 100 µM
SNB-19 CNS
  TGI: > 100 µM
MOLT-4 leukemia
  TGI: > 100 µM
K-562 leukemia
  TGI: > 100 µM
HS 578T breast
  TGI: > 100 µM
COLO 205 colon
  TGI: > 100 µM
OVCAR-4 ovarian
  TGI: > 100 µM
BT-549 breast
  TGI: > 100 µM
U251 CNS
  TGI: > 100 µM
MALME-3M melanoma
  TGI: > 100 µM
M14 melanoma
  TGI: > 100 µM
A498 renal
  TGI: > 100 µM
NCI-H522 lung
  TGI: > 100 µM
RPMI-8226 leukemia
  TGI: > 100 µM
DU-145 prostate
  TGI: > 100 µM
NCI-H23 lung
  TGI: > 100 µM
NCI-H460 lung
  TGI: 32.8 µM
OVCAR-3 ovarian
  TGI: > 100 µM
KM12 colon
  TGI: > 100 µM
SF-268 CNS
  TGI: > 100 µM
SW-620 colon
  TGI: > 100 µM
LOX IMVI melanoma
  TGI: > 100 µM
MDA-MB-231 breast
  TGI: > 100 µM
HCT-116 colon
  TGI: > 100 µM
SNB-75 CNS
  TGI: > 100 µM
HOP-62 NSCLC
  TGI: > 100 µM
HCC-2998 colon
  TGI: > 100 µM
786-0 renal
  TGI: > 100 µM
CCRF-CEM leukemia
  TGI: > 100 µM
